Measured values as given in patent publication US9738902B2, “Modified PYR/PYL receptors activated by ligands” (priority 2013, dated 2017).

Tests used:
[1] = biological target: T1, PYR1 Y58H K59R F108A S122G (Arabidopsis thaliana, UniProt O49686, F108A/K59R/S122G/Y58H); test: Y2H Recombination Mutagenesis (HAB1, X-gal); assay type: cell-based
T1 construct: expressed in transfected cells; host or cells: S. cerevisiae Y190 pACT-HAB1
Description: As a second approach, we used recombination-based mutagenesis to search for mutant combinations that enhance the sensitivity of PYR1^K59R,F108A,S122G to mandipropamid. Nucleotide excision and exchange technology (NExT) (Müller et al., 2005) was used to mutagenize an equal amount of PYR1^K59R,F108A,S122G template with an equal amount of template DNA that was made by pooling plasmid DNA from the NNK plasmid libraries made above for each of the 23 ligand-contacting residues in the PYR1^K59R,F108A,S122G backbone. Thus, PYR1^K59R,F108A,S122G was mutagenized with recombination-based mutagenesis using a library of pocket site mutations. An ˜200,000 member library of mutagenized clones was generated and was transformed into the MAV99 pACT-HAB1 reporter strain. Selections were conducted on plates containing 0.5 μM mandipropamid and appropriate nutrients and amino acids. To establish if strain growth was ligand dependent, the positive clones were subsequently tested for growth on selective plates lacking mandipropamid. Next, plasmids were isolated from strains showing ligand-dependent growth and the mandipropamid sensitivity of mutant receptors characterized using X-gal staining (after transformation into the into the Y190 pACT-HAB1 reporter strain). […]

[2] = biological target: T2, GST-ABI1 with 6×-His-PYR1^MANDI (Arabidopsis thaliana, UniProt O49686, F108A/F159L/K59R/S122G/V81I/Y58H); test: PP2C enzyme inhibition assay (4-methylumbelliferyl-phosphate); assay type: biochemical; details: 100 nM 6×-His-PYR1^MANDI, 50 nM GST-PP2C; read-out: IC50, mandipropamid mediated inhibition of ABI1
T2 construct: made in house; host or cells: E. coli BL21[DE3]pLysS (receptor)
Experimental: (§1) We next characterized the effects of recombinant PYR1^MANDI on PP2C activity using the fluorogenic substrate 4-methylumbelliferyl-phosphate. Recombinant receptor and PP2C proteins were prepared as described above and used to examine PP2C inactivation in response to mandipropamid or ABA. Enzyme inhibition assays were conducted using the following assay conditions: 100 nM 6×-His-PYR1^MANDI, 50 nM GST-PP2C, 100 mM Tris-OAc (pH 7.9), 100 mM NaCl, 1 mM MnCl2, 1% β-mercaptoethanol. […] The three ABA-regulated clade A PP2Cs, GST-HAB1, GST-ABI1 and GST-ABI2 were each tested under the same enzyme conditions in separate reactions. The assays were conducted at a variety of mandipropamid or ABA concentrations so that IC50 values could be determined. […] Thus, the PYR1^MANDI receptor is highly sensitive to activation by mandipropamid and interacts with multiple clade A PP2Cs in response to mandipropamid. This high level of sensitivity is consistent with the yeast two hybrid results described above in which a detectable interaction between PYR1^MANDI and HAB1 could be observed at concentrations as low as 2 nM (see Table 1). We note that the yeast two hybrid reporter systems requires only a small percentage of PYR1^MANDI receptors to bind HAB1 for an interaction signal and is therefore a potentially more sensitive indicator than in vitro assays. […] Thus these in vitro assays confirm that PYR1^MANDI is selectively activated by mandipropamid.

[3] = biological target: T3, GST-HAB1 with 6×-His-PYR1^MANDI (Arabidopsis thaliana, UniProt O49686, F108A/F159L/K59R/S122G/V81I/Y58H); test: as above; assay type: biochemical; details: 100 nM 6×-His-PYR1^MANDI, 50 nM GST-PP2C; read-out: IC50, mandipropamid mediated inhibition of HAB1
T3 construct: made in house; host or cells: E. coli BL21[DE3]pLysS (receptor)
Experimental: as §1

[4] = test system: homozygous PYR1^MANDI expressing transgenic plants; test: thermal imaging of leaf temperature; assay type: in vivo, Arabidopsis
Experimental: To investigate if the system is sufficient to control ABA responses in vegetative tissues, we generated homozygous transgenic lines for two 35S-driven lines (E15 and E16) and 2 RBCS-driven lines (F29 and F34). These materials were grown along side wild type plants and a previously constructed 35S::GFP-PYR1 over expression line (Park et al., 2009). These plants were grown until three weeks old and then treated with a solution containing either 2 μM mandipropamid and 0.02% Silwet or a mock treatment containing 0.02% Silwet and the mandipropamid carrier solvent (DMSO). 24 hours after treatment, the leaf temperatures were examined using a thermal imaging camera. It is well known that ABA-induced guard cell closure reduces transpiration, which leads to increases in leaf temperatures. […] Since guard cell aperture is the primary determinant of transpiration rates, thermal imaging is a useful way to indirectly infer relative transpiration rates and guard cell aperture at the whole plant level. As is shown in FIG. 3, mandipropamid treatment of homozygous PYR1^MANDI expressing transgenic plants leads to large changes in leaf temperature (˜2° C. increase) within 24 hours of treatment.
Treatment of plants with abscisic acid leads to the induction of CYP707A cytochrome P450s, which hydroxylate ABA at its 8′ methyl group. […] Thus, ABA applications lose effect over time due to metabolic inactivation. Given that mandipropamid is a non-native molecule, it is likely not a degraded by the CYP707A enzyme system. […] Plants were treated with mock, 1, 5 or 20 μM mandipropamid and then analyzed by thermography at 4 hours, 3 and 6 days after treatment. […] Additionally, control and 1 μM treated plants flowered during the experiment while flowering was prevented in the 5 μM and 20 μM treated mandipropamid plants.

T1 sequence (O49686 whole entry Y58H/K59R/F108A/S122G): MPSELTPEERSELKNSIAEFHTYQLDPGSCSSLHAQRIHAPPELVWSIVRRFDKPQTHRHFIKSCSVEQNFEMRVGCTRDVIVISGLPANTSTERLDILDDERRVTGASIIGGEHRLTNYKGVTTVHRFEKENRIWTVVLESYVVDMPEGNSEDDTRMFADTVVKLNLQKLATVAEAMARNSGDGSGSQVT
T1 sequence (Q9CAJ0 23-511 partner): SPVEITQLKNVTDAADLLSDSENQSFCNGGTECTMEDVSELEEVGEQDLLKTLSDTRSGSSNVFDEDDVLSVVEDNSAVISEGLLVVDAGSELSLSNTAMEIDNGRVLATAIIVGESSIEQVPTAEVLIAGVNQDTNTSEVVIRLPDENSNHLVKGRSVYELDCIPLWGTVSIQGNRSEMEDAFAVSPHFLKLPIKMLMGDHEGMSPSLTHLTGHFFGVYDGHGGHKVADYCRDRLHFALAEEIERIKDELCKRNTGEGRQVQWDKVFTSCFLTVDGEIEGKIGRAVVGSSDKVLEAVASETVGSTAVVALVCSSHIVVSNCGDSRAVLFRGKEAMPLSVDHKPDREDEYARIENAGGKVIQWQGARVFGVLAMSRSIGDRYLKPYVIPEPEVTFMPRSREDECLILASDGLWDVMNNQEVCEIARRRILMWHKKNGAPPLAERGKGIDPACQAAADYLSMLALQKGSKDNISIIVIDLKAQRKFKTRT
T3 sequence (Q9CAJ0 23-511): as the sequence (Q9CAJ0 23-511 partner) above
T3 sequence (O49686 whole entry Y58H/K59R/V81I/F108A/S122G/F159L): as the sequence (O49686 whole entry Y58H/K59R/F108A/S122G) above, with V81I, F159L counted along it
T2 sequence (O49686 whole entry Y58H/K59R/V81I/F108A/S122G/F159L): as the sequence (O49686 whole entry Y58H/K59R/F108A/S122G) above, with V81I, F159L counted along it
T2 sequence (P49597 whole entry partner): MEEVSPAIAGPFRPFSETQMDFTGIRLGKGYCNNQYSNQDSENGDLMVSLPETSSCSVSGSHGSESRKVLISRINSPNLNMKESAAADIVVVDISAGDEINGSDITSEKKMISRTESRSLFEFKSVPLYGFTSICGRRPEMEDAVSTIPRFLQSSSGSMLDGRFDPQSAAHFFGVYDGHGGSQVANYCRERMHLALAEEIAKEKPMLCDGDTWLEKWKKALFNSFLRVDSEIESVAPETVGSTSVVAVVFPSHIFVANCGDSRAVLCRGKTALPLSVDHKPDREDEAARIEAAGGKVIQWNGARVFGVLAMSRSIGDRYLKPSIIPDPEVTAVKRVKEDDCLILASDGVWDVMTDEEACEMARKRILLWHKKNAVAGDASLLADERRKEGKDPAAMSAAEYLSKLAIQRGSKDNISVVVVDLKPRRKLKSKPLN

C#CCOc1ccc(CCNC(=O)C(OCC#C)c2ccc(Cl)cc2)cc1OC (stereo not shown) [Mandipropamid, mandipropamid]
Threshold [1]: 0.25 µM | IC50 [2]: 26.8 nM | IC50 [3]: 32.2 nM | flowering during the experiment ([4]; 1 μM mandipropamid): flowered | leaf temperature increase ([4]; 2 μM mandipropamid, within 24 hours of treatment): ~2 °C | flowering during the experiment ([4]; 5 μM mandipropamid): prevented | persistence of increased leaf temperature ([4]; 5 μM mandipropamid): at least 6 days | flowering during the experiment ([4]; 20 μM mandipropamid): prevented | persistence of increased leaf temperature ([4]; 20 μM mandipropamid): at least 6 days | time to increased leaf temperature after treatment ([4]; mandipropamid treatment): ≤ 4 h
